From ChEMBL document CHEMBL3414441, “Development of multifunctional, heterodimeric isoindoline-1,3-dione derivatives as cholinesterase and β-amyloid aggregation inhibitors with neuroprotective properties” (Eur J Med Chem, 2015)
Activity calls are given as the source filed them. No cut-off for these calls is given here.

Tests used:
Acetylcholinesterase [1] = target: Acetylcholinesterase (Electrophorus electricus, UniProt O42275)
Description: Inhibition of Electrophorus electricus AChE after 5 mins by Ellman's method

Cholinesterase = Cholinesterase (Equus caballus, UniProt P81908)
Description: Inhibition of equine serum BuChE after 5 mins by Ellman's method

Acetylcholinesterase [2] = target: T1, Acetylcholinesterase (Homo sapiens, UniProt P22303)
Description: Inhibition of human recombinant AChE after 5 mins by Ellman's method

[3] = target: Acetylcholinesterase (Electrophorus electricus) (UniProt O42275); assay: Non-competitive inhibition of Electrophorus electricus AChE after 5 mins by Lineweaver-Burk plot analysis
[4] = target: Cholinesterase (Equus caballus) (UniProt P81908); assay: Inhibition of equine serum BuChE at 10 uM after 5 mins by Ellman's method
Acetylcholinesterase [5] = target: T1, Acetylcholinesterase; assay: Inhibition of human recombinant AChE at 10 uM after 5 mins by Ellman's method
[6] = target: Acetylcholinesterase (Electrophorus electricus) (UniProt O42275); assay: Inhibition of Electrophorus electricus AChE at 10 uM after 5 mins by Ellman's method
[7] = target: Amyloid-beta precursor protein (Homo sapiens) (UniProt P05067); assay: Neuroprotective activity in human SH-SY5Y cells assessed as inhibition amyloid beta (1 to 42)-induced cytotoxicity at 10 uM after 48 hrs; type: functional, cell-based
[8] = target: Amyloid-beta precursor protein (Homo sapiens) (UniProt P05067); assay: Neuroprotective activity in human SH-SY5Y cells assessed as inhibition amyloid beta (1 to 42)-induced cytotoxicity at 1 uM after 48 hrs; type: functional, cell-based; set-up: scale not given: the % may be the effect or the level left
[9] = Cytotoxicity against human SH-SY5Y cells assessed as cell viability at 0.1 to 10 uM after 48 hrs by MTS assay; type: cell-based
[10] = target: Amyloid-beta precursor protein (Homo sapiens) (UniProt P05067); assay: Neuroprotective activity in human SH-SY5Y cells assessed as inhibition amyloid beta (1 to 42)-induced cytotoxicity at 3 uM after 48 hrs; type: functional, cell-based; set-up: scale not given: the % may be the effect or the level left
[11] = target: Amyloid-beta precursor protein (Homo sapiens) (UniProt P05067); assay: Inhibition of human recombinant amyloid beta (1 to 42) self-induced aggregation after 24 hrs by thioflavin-T based fluorometric assay

Sequence of Amyloid-beta precursor protein (Homo sapiens) (P05067 whole entry): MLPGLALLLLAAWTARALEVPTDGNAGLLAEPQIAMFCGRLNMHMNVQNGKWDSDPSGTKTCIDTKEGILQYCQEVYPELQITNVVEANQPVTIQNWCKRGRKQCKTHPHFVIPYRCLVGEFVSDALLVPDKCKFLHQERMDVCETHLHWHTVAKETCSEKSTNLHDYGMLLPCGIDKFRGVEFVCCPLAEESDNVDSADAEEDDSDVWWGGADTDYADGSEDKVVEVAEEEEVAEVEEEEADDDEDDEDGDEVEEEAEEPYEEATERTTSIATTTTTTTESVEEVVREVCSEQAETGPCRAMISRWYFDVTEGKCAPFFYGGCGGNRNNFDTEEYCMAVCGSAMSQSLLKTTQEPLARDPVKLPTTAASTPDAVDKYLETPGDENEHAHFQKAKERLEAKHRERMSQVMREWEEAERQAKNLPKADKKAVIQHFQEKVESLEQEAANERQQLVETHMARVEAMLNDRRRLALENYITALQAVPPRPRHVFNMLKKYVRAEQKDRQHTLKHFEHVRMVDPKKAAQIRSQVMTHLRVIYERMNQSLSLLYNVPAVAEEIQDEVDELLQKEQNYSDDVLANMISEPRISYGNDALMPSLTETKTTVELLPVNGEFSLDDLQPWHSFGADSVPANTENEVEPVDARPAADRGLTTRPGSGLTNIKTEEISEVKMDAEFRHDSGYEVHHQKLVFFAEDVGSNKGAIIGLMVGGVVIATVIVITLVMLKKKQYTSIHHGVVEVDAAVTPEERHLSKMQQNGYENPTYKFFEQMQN
Sequence of Acetylcholinesterase (Electrophorus electricus, UniProt O42275) (O42275 whole entry): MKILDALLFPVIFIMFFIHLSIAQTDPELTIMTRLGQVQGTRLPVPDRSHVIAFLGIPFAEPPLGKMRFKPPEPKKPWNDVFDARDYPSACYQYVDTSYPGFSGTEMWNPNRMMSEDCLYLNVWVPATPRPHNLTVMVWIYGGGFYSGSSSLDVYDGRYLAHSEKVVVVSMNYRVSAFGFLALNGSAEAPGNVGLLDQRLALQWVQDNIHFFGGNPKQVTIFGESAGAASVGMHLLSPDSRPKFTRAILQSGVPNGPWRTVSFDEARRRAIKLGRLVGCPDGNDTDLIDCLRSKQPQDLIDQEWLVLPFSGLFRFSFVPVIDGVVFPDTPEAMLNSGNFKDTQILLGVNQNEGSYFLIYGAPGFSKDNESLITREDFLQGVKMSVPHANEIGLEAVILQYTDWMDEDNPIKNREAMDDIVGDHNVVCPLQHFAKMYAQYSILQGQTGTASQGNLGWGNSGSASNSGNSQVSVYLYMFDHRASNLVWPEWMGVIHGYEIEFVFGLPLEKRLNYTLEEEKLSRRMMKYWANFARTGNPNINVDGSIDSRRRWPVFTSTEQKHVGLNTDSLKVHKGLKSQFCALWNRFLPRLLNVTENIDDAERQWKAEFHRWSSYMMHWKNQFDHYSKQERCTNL
T1 sequence (P22303 whole entry): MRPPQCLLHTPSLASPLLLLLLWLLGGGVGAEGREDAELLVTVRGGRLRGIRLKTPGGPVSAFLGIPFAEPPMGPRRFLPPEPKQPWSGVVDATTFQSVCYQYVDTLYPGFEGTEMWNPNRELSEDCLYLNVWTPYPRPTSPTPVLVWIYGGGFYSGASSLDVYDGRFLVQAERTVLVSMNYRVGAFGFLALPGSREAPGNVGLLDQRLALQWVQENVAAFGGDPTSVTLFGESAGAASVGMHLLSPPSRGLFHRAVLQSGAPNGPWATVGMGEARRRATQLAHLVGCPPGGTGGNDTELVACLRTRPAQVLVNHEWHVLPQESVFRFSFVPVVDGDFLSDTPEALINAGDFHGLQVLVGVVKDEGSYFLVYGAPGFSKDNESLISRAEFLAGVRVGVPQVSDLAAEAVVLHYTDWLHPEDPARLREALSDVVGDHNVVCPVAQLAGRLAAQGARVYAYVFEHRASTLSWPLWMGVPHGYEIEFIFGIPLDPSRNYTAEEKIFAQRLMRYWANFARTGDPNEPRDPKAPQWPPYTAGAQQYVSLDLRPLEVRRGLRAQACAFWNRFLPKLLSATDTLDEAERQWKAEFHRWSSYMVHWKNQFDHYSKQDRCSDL
Sequence of Acetylcholinesterase (Electrophorus electricus) (O42275 24-633 limits assumed): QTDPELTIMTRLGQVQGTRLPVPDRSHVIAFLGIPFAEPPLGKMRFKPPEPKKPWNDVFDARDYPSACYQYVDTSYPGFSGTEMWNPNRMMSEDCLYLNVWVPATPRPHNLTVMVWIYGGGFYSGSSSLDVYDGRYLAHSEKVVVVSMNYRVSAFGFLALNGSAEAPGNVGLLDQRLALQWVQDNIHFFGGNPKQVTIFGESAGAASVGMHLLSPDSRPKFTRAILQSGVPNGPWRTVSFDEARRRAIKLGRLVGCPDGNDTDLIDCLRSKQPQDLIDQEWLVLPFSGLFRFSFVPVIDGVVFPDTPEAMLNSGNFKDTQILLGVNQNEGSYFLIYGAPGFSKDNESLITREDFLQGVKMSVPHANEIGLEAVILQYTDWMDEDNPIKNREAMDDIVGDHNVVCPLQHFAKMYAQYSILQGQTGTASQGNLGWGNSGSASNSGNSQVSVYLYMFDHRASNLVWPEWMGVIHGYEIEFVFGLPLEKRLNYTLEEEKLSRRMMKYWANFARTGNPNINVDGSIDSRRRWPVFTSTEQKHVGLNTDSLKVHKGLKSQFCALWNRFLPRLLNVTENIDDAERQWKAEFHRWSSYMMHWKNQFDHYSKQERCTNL
Sequence of Cholinesterase (Equus caballus) (P81908 whole entry): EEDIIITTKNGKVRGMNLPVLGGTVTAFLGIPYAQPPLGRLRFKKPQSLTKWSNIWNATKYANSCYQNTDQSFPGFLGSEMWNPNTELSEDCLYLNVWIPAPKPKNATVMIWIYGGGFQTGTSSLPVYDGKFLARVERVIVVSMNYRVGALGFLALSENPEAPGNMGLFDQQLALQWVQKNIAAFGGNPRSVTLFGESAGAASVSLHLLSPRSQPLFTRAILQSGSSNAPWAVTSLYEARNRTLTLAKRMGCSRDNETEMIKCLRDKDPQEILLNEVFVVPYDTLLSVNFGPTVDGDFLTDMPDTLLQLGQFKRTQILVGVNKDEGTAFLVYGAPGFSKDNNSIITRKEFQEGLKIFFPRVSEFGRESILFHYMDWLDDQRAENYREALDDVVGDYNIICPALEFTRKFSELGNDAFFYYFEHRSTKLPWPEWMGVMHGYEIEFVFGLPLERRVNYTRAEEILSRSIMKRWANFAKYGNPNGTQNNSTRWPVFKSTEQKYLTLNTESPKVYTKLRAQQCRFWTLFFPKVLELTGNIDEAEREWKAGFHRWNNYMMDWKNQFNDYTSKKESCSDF
Sequence of Cholinesterase (P81908 whole entry): as above

Row | SMILES | IC50 (Acetylcholinesterase [1]) [nM] | IC50 (Cholinesterase) [nM] | IC50 (Acetylcholinesterase [2]) [nM] | inhibition [4] [%] | also measured
1 | O=C1c2ccccc2C(=O)N1CCCCCCNCc1ccc(F)cc1 | 694 | 9200 | 3170 |  | 
2 | O=C1c2ccccc2C(=O)N1CCCCCCCCNCc1cccc(Cl)c1 | 729 | 1480 | 686 |  | 
3 | O=C1c2ccccc2C(=O)N1CCCCCCCNCc1ccc(F)cc1 | 361 | 1580 | 437 |  | 
4 | O=C1c2ccccc2C(=O)N1CCCCCNCc1cccc(Cl)c1 | 34 |  | 160 | < 50 | inhibition [3]: Active
5 | O=C1c2ccccc2C(=O)N1CCCCCNCc1ccccc1F | 41 |  | 168 | < 50 | 
6 | O=C1c2ccccc2C(=O)N1CCCCCNCc1ccc(F)cc1F | 100 |  | 258 | < 50 | inhibition [3]: Active
7 | O=C1c2ccccc2C(=O)N1CCCCCCCNCc1ccc(F)cc1F | 171 | 1870 | 381 |  | 
8 | O=C1c2ccccc2C(=O)N1CCCCCCNCc1ccccc1F | 113 |  | 941 | < 50 | 
9 | O=C1c2ccccc2C(=O)N1CCCCCCCNCc1cccc(Cl)c1 | 502 | 2630 | 651 |  | 
10 | O=C1c2ccccc2C(=O)N1CCCCCCCCNCc1ccccc1 | 773 | 1230 | 496 |  | inhibition [3]: Active
11 | O=C1c2ccccc2C(=O)N1CCCCCCCCNCc1ccc(F)cc1 | 2230 | 1690 |  |  | inhibition (Acetylcholinesterase [5]): < 50%
12 | O=C1c2ccccc2C(=O)N1CCCCCCNCc1ccccc1 | 216 |  | 2100 | < 50 | 
13 | O=C1c2ccccc2C(=O)N1CCCCNCc1ccccc1F | 2030 |  |  | < 50 | inhibition (Acetylcholinesterase [5]): < 50%
14 | O=C1c2ccccc2C(=O)N1CCCCCCCCNCc1ccc(F)cc1F | 601 | 1060 | 578 |  | 
15 | O=C1c2ccccc2C(=O)N1CCCCNCc1ccc(F)cc1 |  |  |  | < 50 | inhibition (Acetylcholinesterase [5]): < 50%; inhibition [6]: < 50%
16 | O=C1c2ccccc2C(=O)N1CCCCCNCc1ccccc1 | 78 |  | 202 | < 50 | 
17 | O=C1c2ccccc2C(=O)N1CCCCCCNCc1ccc(F)cc1F | 229 | 8090 | 1600 |  | Activity [7]: inactive; Activity [8]: 80.3%; Activity [9]: Non-toxic; Activity [10]: 66.5%
18 | O=C1c2ccccc2C(=O)N1CCCCCCNCc1cccc(Cl)c1 | 180 | 4600 | 2010 |  | 
19 | O=C1c2ccccc2C(=O)N1CCCCNCc1ccc(F)cc1F | 8180 |  |  | < 50 | inhibition (Acetylcholinesterase [5]): < 50%
20 | O=C1c2ccccc2C(=O)N1CCCCNCc1ccccc1 | 5280 |  |  | < 50 | inhibition (Acetylcholinesterase [5]): < 50%
21 | O=C1c2ccccc2C(=O)N1CCCCCNCc1ccc(F)cc1 | 219 |  | 268 | < 50 | inhibition [11]: Dose-dependent effect; Activity [7]: inactive; Activity [8]: 84.5%; Activity [9]: Non-toxic; Activity [10]: 76.2%
22 | O=C1c2ccccc2C(=O)N1CCCCNCc1cccc(Cl)c1 | 1970 |  |  | < 50 | inhibition (Acetylcholinesterase [5]): < 50%
23 | O=C1c2ccccc2C(=O)N1CCCCCCCCNCc1ccccc1F | 438 | 2090 | 545 |  | 
24 | O=C1c2ccccc2C(=O)N1CCCCCCCNCc1ccccc1 | 249 | 1710 | 303 |  | 
25 | O=C1c2ccccc2C(=O)N1CCCCCCCNCc1ccccc1F | 119 | 2380 | 329 |  | 
